According to doi:10.1101/2024.12.04.24318244v2 (medrxiv, 2024):
Structures can show the parent of a compound that is named as a salt. Where two headings read alike, the source gives them in different places.

Experiments:
Assay in all cases: radioligand competition binding
5-HT1A = target: T1, 5-HT1A (Homo sapiens, UniProt P08908)
T1 sequence (P08908 1-422): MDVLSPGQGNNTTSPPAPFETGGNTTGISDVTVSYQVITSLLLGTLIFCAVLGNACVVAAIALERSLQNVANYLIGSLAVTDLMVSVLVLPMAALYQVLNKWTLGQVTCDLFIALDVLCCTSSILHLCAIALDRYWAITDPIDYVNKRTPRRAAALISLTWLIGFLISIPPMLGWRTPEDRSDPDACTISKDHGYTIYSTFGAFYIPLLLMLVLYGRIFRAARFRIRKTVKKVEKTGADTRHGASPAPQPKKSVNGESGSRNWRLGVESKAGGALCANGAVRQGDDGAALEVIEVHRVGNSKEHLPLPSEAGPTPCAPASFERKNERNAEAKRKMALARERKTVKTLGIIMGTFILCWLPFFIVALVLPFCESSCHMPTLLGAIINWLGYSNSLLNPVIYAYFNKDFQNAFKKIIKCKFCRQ

5-HT2B = 5-HT2B (Homo sapiens, UniProt P41595)
S2R = target: S2R

5-HT2B, sequence (P41595 whole entry): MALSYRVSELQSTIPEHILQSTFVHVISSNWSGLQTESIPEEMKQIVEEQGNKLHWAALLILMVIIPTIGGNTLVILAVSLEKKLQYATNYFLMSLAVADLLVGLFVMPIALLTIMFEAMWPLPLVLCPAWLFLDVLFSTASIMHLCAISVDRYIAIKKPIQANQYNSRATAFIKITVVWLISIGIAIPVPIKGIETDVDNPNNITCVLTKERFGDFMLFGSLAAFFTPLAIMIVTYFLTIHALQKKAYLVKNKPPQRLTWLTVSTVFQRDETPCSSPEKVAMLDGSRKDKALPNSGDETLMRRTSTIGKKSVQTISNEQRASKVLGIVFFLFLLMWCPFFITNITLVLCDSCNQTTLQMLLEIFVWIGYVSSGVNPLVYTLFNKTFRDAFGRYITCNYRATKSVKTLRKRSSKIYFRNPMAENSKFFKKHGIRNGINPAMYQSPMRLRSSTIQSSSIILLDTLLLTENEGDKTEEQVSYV

Row | Ki (5-HT1A) [nM] | Ki (5-HT2B) [nM] | Ki (S2R; text b35 prints a range that differs from the table) [nM] | Ki (S2R) [nM] | Ki (5-HT1A; text b38 prints a wider range than the table) [nM] | Structure (SMILES)
1 | > 5000 | > 5000 | 36.1 |  |  | CC(C)n1c(=O)c(C(=O)NCCCN2CCCCC2)c(O)c2ccsc21 [PRX-3140, 6,7-Dihydro-4-hydroxy-7-isopropyl-6-oxo-N-(3-(piperidin-1-yl)propyl)thieno[2,3-b]pyridine-5-carboxamide potassium salt]
2 |  | 3.4 |  | 42 |  | N#Cc1cc(CN2CCC(Nc3ncnc4sc(Cl)cc34)CC2)ccc1F [NP-18-3, 5-((4-(6-chlorothieno[2,3-d]pyrimidin-4-ylamino)piperidine-1-yl)methyl)-2-fluorobenzonitrile monofumarate]
3 |  | > 5000 |  | > 2000 | 5 to 11 | CC(=O)Nc1cccc(N2CCN(CCCCNS(=O)(=O)CC3CCCCC3)CC2)c1 [NP-18-2, N-{3-[4-(4-cyclohexylmethanesulfonylaminobutyl)-piperazin-1-yl]phenyl} acetamide hydrochloride]
